We go through twelve compounds from ChEMBL document CHEMBL1132204, “Design and synthesis of phosphinamide-based hydroxamic acids as inhibitors of matrix metalloproteinases” (J Med Chem, 1999).

One assay concerns the target Stromelysin-1 (Homo sapiens, UniProt P08254). Nature of the assay: Inhibition of human matrix metalloprotease-3.
Another assay addresses T1, Interstitial collagenase (Homo sapiens, UniProt P03956).
T1 sequence (P03956 whole entry): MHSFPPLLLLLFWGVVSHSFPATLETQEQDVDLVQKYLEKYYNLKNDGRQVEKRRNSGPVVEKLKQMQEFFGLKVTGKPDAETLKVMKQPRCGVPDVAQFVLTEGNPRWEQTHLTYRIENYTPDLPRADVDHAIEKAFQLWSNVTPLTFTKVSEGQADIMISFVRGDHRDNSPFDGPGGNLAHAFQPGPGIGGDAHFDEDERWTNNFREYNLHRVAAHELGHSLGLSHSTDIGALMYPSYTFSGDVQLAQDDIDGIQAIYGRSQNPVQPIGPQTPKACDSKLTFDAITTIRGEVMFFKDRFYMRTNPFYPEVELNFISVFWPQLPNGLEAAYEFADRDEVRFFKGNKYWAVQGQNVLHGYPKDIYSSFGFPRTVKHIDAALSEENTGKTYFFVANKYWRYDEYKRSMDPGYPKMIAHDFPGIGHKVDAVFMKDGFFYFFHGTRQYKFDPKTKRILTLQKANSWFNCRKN
Nature of the assay: Inhibition of human matrix metalloprotease 1.

The next assay addresses Neutrophil collagenase (Homo sapiens, UniProt P22894). Kind of assay: Inhibition of human Matrix metalloprotease-8.
For assay [1], the target named is Matrix metalloproteinase-9 (Homo sapiens, UniProt P14780). Kind of assay: Inhibition of human matrix metalloprotease 9.
Chain of Matrix metalloproteinase-9 (P14780 whole entry): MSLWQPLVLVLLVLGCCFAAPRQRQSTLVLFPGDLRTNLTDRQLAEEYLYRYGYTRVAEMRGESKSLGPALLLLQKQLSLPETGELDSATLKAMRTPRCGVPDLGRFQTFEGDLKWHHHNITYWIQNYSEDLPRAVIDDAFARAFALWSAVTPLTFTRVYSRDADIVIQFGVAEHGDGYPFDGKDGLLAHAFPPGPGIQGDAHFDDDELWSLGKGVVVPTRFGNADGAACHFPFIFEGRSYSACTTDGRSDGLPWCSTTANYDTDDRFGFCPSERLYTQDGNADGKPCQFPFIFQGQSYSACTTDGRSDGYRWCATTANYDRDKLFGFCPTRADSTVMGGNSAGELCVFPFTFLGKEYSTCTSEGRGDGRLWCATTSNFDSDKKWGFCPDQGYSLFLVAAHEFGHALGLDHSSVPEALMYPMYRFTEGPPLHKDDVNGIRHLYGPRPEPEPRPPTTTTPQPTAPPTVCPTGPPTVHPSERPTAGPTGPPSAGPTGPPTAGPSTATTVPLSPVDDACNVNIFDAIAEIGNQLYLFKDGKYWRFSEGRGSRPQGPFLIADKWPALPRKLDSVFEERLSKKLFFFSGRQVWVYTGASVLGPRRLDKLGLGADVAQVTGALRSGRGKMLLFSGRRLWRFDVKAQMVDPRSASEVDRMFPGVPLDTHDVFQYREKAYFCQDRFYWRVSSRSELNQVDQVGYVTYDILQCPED
In the next assay the target is Collagenase 3 (Rattus norvegicus, UniProt P23097).
Another assay addresses T2, Matrilysin (Homo sapiens, UniProt P09237).
T2 sequence (P09237 whole entry): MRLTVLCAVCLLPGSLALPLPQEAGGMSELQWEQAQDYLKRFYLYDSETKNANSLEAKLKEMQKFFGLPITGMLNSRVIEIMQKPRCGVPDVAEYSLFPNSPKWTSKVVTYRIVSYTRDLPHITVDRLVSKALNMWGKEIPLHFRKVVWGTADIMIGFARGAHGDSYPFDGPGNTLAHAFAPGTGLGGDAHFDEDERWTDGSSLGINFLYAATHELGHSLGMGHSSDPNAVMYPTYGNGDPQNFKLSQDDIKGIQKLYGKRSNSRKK
Kind of assay: Inhibition of human matrix metalloprotease 7.

Assay [2] addresses 72 kDa type IV collagenase (Homo sapiens, UniProt P08253). Nature of the assay: Inhibition of human matrix metalloprotease 2.

Chain of Stromelysin-1 (P08254 whole entry): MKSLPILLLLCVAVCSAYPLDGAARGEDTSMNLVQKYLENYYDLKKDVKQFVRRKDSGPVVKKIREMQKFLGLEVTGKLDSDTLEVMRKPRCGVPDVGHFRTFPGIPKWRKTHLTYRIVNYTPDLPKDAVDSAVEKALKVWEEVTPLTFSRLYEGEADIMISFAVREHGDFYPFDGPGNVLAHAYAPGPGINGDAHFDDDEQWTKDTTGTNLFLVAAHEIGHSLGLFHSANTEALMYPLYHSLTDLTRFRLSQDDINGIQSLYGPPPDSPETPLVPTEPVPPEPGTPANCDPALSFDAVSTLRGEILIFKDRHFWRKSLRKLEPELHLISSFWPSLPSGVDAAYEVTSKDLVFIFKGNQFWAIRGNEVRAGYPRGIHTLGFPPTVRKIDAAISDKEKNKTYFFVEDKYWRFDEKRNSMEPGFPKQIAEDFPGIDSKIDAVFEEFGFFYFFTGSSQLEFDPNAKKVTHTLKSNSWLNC
Chain of Neutrophil collagenase (P22894 whole entry): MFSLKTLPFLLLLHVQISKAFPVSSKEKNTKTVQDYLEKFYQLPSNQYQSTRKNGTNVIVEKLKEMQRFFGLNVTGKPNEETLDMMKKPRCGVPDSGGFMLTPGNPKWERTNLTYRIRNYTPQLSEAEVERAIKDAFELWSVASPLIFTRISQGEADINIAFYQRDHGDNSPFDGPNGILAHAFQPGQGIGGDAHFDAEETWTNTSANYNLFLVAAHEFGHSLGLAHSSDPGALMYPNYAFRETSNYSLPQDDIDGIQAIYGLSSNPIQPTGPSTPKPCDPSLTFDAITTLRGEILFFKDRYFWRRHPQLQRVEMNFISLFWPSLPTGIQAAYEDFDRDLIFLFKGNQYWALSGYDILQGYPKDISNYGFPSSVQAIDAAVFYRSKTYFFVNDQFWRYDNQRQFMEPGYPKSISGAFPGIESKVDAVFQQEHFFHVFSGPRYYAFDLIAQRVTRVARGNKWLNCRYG
Chain of 72 kDa type IV collagenase (P08253 whole entry): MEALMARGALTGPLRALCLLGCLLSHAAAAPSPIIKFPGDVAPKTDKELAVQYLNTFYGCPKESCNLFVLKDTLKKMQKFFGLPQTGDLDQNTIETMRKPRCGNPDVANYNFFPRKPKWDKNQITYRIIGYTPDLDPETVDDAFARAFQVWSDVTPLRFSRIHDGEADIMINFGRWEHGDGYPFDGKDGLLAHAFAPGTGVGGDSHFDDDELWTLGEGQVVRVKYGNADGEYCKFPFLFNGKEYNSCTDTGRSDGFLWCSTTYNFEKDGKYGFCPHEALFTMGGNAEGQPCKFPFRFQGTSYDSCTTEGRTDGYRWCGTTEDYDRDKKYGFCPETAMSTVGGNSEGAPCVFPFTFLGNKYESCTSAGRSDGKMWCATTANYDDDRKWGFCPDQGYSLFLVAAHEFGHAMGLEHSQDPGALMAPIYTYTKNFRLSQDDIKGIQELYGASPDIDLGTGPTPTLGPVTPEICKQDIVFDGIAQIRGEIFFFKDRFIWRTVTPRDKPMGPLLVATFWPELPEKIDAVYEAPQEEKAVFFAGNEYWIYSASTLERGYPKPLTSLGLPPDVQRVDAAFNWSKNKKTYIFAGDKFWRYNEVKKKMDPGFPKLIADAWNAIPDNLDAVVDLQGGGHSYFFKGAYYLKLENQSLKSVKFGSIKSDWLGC
Description for Collagenase 3: Inhibition of rat matrix metalloprotease 13

Turning to `CCP(=O)(c1ccccc1)N(Cc1ccccc1)[C@H](C)C(=O)NO` (stereo partly specified), the IC50 came to 700 nM at Stromelysin-1 and 608 nM on Interstitial collagenase.

As to `C[C@H](C(=O)NO)N(Cc1ccccc1)P(=O)(c1ccccc1)c1ccccc1`, the IC50 at Stromelysin-1 worked out at 10300 nM; against Interstitial collagenase it was 6790 nM.

Take `O=C(CN(CCc1ccccc1)P(=O)(c1ccccc1)c1ccccc1)NO`: the IC50 against Stromelysin-1 is 1750 nM; against Interstitial collagenase, 854 nM.

As to `CCCCCCN([C@H](C)C(=O)NO)[P@](C)(=O)c1ccccc1`, the IC50 against Stromelysin-1 was found to be 1600 nM; against Interstitial collagenase, 1290 nM.

For the compound `CC(C)C[C@H](C(=O)NO)N(Cc1ccccc1)[P@](C)(=O)c1ccccc1`, the IC50 against Neutrophil collagenase stood at 5.3 nM; in assay [1] it was 20.6 nM; at Collagenase 3 it was 7.4 nM; at Stromelysin-1, 24.4 nM; against Matrilysin, 886 nM; at Interstitial collagenase it was 20.5 nM. In assay [2], this compound displayed an IC50 of 13.3 nM.

In the case of `C[P@@](=O)(c1ccccc1)N(CCc1ccccc1)CC(=O)NO`, the IC50 against Stromelysin-1 worked out at 700 nM; against Interstitial collagenase it was 525 nM.

Turning to `C[C@H](C(=O)NO)N(Cc1ccccc1)[P@](C)(=O)c1ccccc1`, the IC50 in assay [1] turned out to be 32.5 nM; on Stromelysin-1, 67.9 nM; at Matrilysin, 1860 nM; at Interstitial collagenase, 120 nM.

For `CC(C)C[C@@H](N[P@@](C)(=O)c1ccccc1)C(=O)NO`, the IC50 against Stromelysin-1 is 130000 nM; against Interstitial collagenase, above 100000 nM.

Take `CC[P@@](=O)(c1ccccc1)N(Cc1ccccc1)[C@H](C)C(=O)NO`: the IC50 against Stromelysin-1 was 49300 nM; at Interstitial collagenase it was 33300 nM.

Consider `CC(C)C[C@H](C(=O)NO)N(Cc1ccccc1)P(C)(C)=O`, for which the half-maximal inhibitory concentration (IC50) came out at 1040 nM on Stromelysin-1 and 518 nM on Interstitial collagenase.

As to `CC(C)C[C@@H](N[P@](C)(=O)c1ccccc1)C(=O)NO`, the IC50 against Stromelysin-1 worked out at 2550 nM; against Interstitial collagenase it was 2510 nM.

Take `CC(C)C[C@H](C(=O)NO)N(Cc1ccccc1)[P@@](C)(=O)c1ccccc1`: the IC50 against Stromelysin-1 is 9170 nM; against Interstitial collagenase, 7120 nM.
